Experimental findings from patent US4892947A, “3(2H)Pyridazinone, process for its preparation and anti-allergic agent containing it” (Nissan Chemical Industries Ltd., priority 1985, dated 1990) are described below.

Where a name gives a salt, the structure may show the parent alone.

The first data set has as its system ddY strain male mice. Put plainly: Acute toxicity test, intraperitoneal (Test method-(1)). Format: in vivo. Particulars: i.p. 200 mg/kg, 7 days. Here is the method: The lethal ratio was determined in ddY strain male mice (4 weeks old) at 7 days after the intraperitoneal injection of test compounds.
With `CCCOc1cc(CNc2cnn(C)c(=O)c2Cl)ccc1OC` [Compound No. 12], the “Lethal ratio (Death number/Experimental number)” value is on record as 0/2.

Still in this data set, the particulars now being: i.p. 400 mg/kg, 7 days.
For the molecule `CCCOc1cc(CNc2cnn(C)c(=O)c2Cl)ccc1OC` [Compound No. 12], the “Lethal ratio (Death number/Experimental number)” value is 0/1.

Another data set concerns LTD4. Put plainly: LTD4 antagonism in isolated guinea-pig trachea with indomethacin (method (ii)). Format: cell-based. The conditions noted are these: Cavia porcellus, 0.5 h, 10^-6 g/ml test compound, 30 min prior to LTD4. Here is the method: (ii) LTD4 antagonism in guinea-pig trachea
Antagonism for LTD4 was determined in isolated guinea-pig trachea prepared as spiral strip. Tracheal preparations were suspended under 1 g tension in 10 ml organ baths containing […] of indomethacin and they were incubated for 1 hr prior to use. Contractile responses to LTD4 (2×10^-8 g/ml) were obtained after the maximal respone to hitamine (10^-4 M). Test compounds dissolved in 100% dimethyl sulfoxide were added to the organ baths (final concentration of 10^-6 g/ml) 30 min prior to LTD4 addition, and then contractile responses to LTD4 were compared with those of control which was obtained from a paired trachea in the absence of test compounds. LTD4 -induced contractions were expressed as a percentage of the maximal response to histamine. The antagonism was determined as follows:
(§1) Antagonism (%)=(1.0-% contraction in test/% contraction in control)×100
As usually defined, the inhibition is the change of the read-out against control, counted positive when it falls. Read a low inhibition as a response near the control. Molecule `CCCCCCOc1cc(CNc2cn[nH]c(=O)c2Br)ccc1OC` [Compound No. 41] returned an inhibition at 1 µg/mL of 87%.

In turn, `CCCCCCOc1cc(CNc2cn[nH]c(=O)c2Cl)ccc1OC` [compound 40] had an inhibition at 1 µg/mL of 99%.

`CCCCCCCOc1cc(CNc2cn[nH]c(=O)c2Cl)ccc1OC` [compound 42] gave an inhibition at 1 µg/mL of 96%.

For `CCCCCCCOc1cc(CNc2cn[nH]c(=O)c2Br)ccc1OC` [compound 43], the inhibition at 1 µg/mL is 78%.

`COc1ccc(CNc2cnn(-c3ccccc3)c(=O)c2Cl)cc1` [compound 44] gave an inhibition at 1 µg/mL of 20%.

The molecule `COc1ccc(CNc2cnn(Cc3ccccc3)c(=O)c2Cl)cc1` [compound 45] yielded an inhibition at 1 µg/mL of 23%.

`CCOc1cc(CNc2cnn(C3CCCC3)c(=O)c2Cl)ccc1OC` [compound 46] showed an inhibition at 1 µg/mL of 38%.

In turn, `C=CCn1ncc(NCc2ccc(OC)c(OCCC)c2)c(Cl)c1=O` [compound 47] returned an inhibition at 1 µg/mL of 31%.

As to `C=CCn1ncc(NCc2ccc(OC)c(OCC)c2)c(Cl)c1=O` [compound 48], at 1 µg/mL the inhibition was 28%.

In the case of `CCOc1cc(CNc2cnn(-c3ccccc3)c(=O)c2Cl)ccc1OC` [compound 49], testing at 1 µg/mL gave an inhibition of 42%.

`CCOc1cccc(CNc2cnn(Cc3ccccc3)c(=O)c2Cl)c1` [compound 50] had an inhibition at 1 µg/mL of 30%.

`Cc1ccc(CNc2cn[nH]c(=O)c2Cl)c(C)c1` [compound 52] showed an inhibition at 1 µg/mL of 22%.

The molecule `Cc1ccc(CNc2cn[nH]c(=O)c2Br)c(C)c1` [compound 53] displayed an inhibition at 1 µg/mL of 37%.

The molecule `COc1ccc(CNc2cn[nH]c(=O)c2Cl)cc1OCc1ccccc1` [compound 54] registered an inhibition at 1 µg/mL of 44%.

A further data set has as its system antigen-induced anaphylactic bronchoconstriction in passively sensitized guinea-pig. Put plainly: Anaphylactic bronchoconstriction in passively sensitized guinea-pig, i.v. test. Format: in vivo. The conditions noted are these: i.v. 2 mg/kg, 1 min prior to EA challenge (10 mg/kg). On the procedure:
(iii) Effect on anaphylactic bronchoconstriction in passively sensitized guinea-pig
Male guinea-pigs (350-450 g) were passively sensitized with intravenous (i.v.) injection of 0.125 ml rabbit anti-EA (egg albumin) serum (Cappel Laboratories) 1 to 2 days preceding the experiment. […] Sensitized guinea-pigs were anaesthetized with intraperitoneal injection of urethane (1.5 g/kg). The right jugular vein was cannulated for the administration of the all agents and trachea was cannulated to record total pulmonary resistance. Guinea-pigs were artificially ventilated by a small animal respirator (Shinano, Model SN-480-7) set at a stroke volume of 4.5 ml and a rate of 50 breaths per min. […] The increase in air overflow volume was expresssed as a percentage of the maximum bronchoconstriction obtained by clamping off the trachea. Following surgical preparation, the animals were pretreated with indomethacin (0.2 mg/kg, 10 min), pyrilamine (2 mg/kg, 6 min) and propanolol (0.1 mg/kg, 5 min) prior to the EA challenge (0.1 or 10 mg/kg). All test compounds were administered intraveneously or orally before the EA challenge. Inhibition (%) of bronchoconstriction was determined as follows: Inhibition (%)=(1.0%-maximum bronchoconstriction in test/% maximum bronchoconstriction in control)×100. […] The number of test animals was 4 in the i.v. test and 6 in the p.o. test.
(a) The i.v. test: A test compound (2 mg/kg) was suspended or dissolved in 3% Tween 80 and intraveneously administered 1 min prior to the EA challlenge (10 mg/kg).
On to `CCCOc1cc(CNc2cnn(C)c(=O)c2Cl)ccc1OC` [Compound No. 12], for which the “Inhibition (%) of bronchoconstriction” value turned out to be 31%.

As to `CN(C)c1ccc(CNc2cn[nH]c(=O)c2Cl)cc1` [compound 25], the “Inhibition (%) of bronchoconstriction” value is given as 27%.

Another data set has as its system LTD4. Put plainly: LTD4 antagonism in isolated guinea-pig trachea (method (i)). Format: cell-based. The conditions noted are these: 10^-5 g/ml test compound, 5 min prior to LTD4 (2×10^-8 g/ml), hydrochloride. Here is the method:
(i) LTC4 and LTD4 antagonisms in guinea-pig trachea
Antagonisms for LTC4 and LTD4 were determined in isolated guinea-pig trachea prepared as spiral strip. Tracheal preparations were suspended under 1 g tension in 10 ml organ baths and they were incubated for 1 hr prior to use. Contractile responses to LTC4 (2×10^-8 g/ml) and LTD4 (2×10^-8 g/ml) were obtained after the maximal response to histamine (10^-4 M). Test compounds dissolved in 100% dimethyl sulfoxide were added to the organ baths (final concentration of 10^-5 g/ml or 10^-6 g/ml) 5 min prior to LTC4 and LTD4 addition, and then contractile responses to LTC4 and LTD4 were compared with those of control which was obtained from a paired trachea in the absence of test compounds. LTC4 - and LTD4 -induced contractions were expressed as a percentage of the maximal response to histamine. The antagonism was determined as follows:
as §1
As to `COc1ccc(CNc2cnn(CCN(C)C)c(=O)c2Cl)cc1OC` [Compound No. 9, 4-Chloro-5-(3,4-dimethoxybenzylamino)-2-(2-N,N-dimethylaminoethyl)-3(2H)pyridazinone hydrochloride], the “LTD4 antagonism (%)” value turned out to be 26%.

The same data set, now with this note: Cavia porcellus, 5 min, 10^-5 g/ml test compound, 5 min prior to LTD4 (2×10^-8 g/ml).
Turning to `CC(C)c1ccc(CNc2cnn(C)c(=O)c2Cl)cc1` [Compound No. 1], 10 µg/mL produced 49% inhibition.

In the case of `C=CCn1ncc(NCc2ccc(Cl)cc2)c(Cl)c1=O` [Compound No. 2], the inhibition at 10 µg/mL stood at 93%.

In turn, `CCOc1cccc(CNc2cnn(C)c(=O)c2Cl)c1` [Compound No. 4] showed an inhibition at 10 µg/mL of 49%.

`COc1ccc(CNc2cnn(CCN(C)C)c(=O)c2Cl)cc1OC` [Compound No. 8, 4-Chloro-5-(3,4-dimethoxybenzylamino)-2-(2-N,N-dimethylaminoethyl)-3(2H)pyridazinone] gave an inhibition at 10 µg/mL of 36%.

With `CCCOc1cc(CNc2cnn(C)c(=O)c2Cl)ccc1OC` [Compound No. 12], the inhibition at 10 µg/mL was 73%.

`CCCCCOc1cc(CNc2cnn(CCC(=O)OC(C)(C)C)c(=O)c2Cl)ccc1OC` [Compound No. 16, 4-Chloro-5-(3-n-pentyloxy-4-methoxybenzylamino)-2-{2-(t-butyloxycarbonyl)ethyl}-3(2H)pyridazinone] showed an inhibition at 10 µg/mL of 24%.

`CCCOc1cccc(CNc2cnn(C)c(=O)c2Cl)c1` [compound 5] yielded an inhibition at 10 µg/mL of 71%.

Take `C=CCn1ncc(NCc2ccc(OC)c(OC)c2)c(Cl)c1=O` [compound 6]: the inhibition at 10 µg/mL was 53%.

Molecule `Cn1ncc(NCc2cccc(OCc3ccccc3)c2)c(Cl)c1=O` [compound 7] gave an inhibition at 10 µg/mL of 53%.

`COc1ccc(CNc2cnn(CC(F)(F)F)c(=O)c2Cl)cc1OC` [compound 11] registered an inhibition at 10 µg/mL of 47%.

`CCCCCOc1cc(CNc2cnn(CCO)c(=O)c2Cl)ccc1OC` [compound 14] yielded an inhibition at 10 µg/mL of 35%.

For `CCCCCOc1cc(CNc2cnn(CCCO)c(=O)c2Cl)ccc1OC` [compound 15], the inhibition at 10 µg/mL stood at 51%.

In the case of `CCCCCOc1cc(CNc2cnn(CC(=O)O)c(=O)c2Cl)ccc1OC` [compound 17], the inhibition at 10 µg/mL stood at 20%.

In the case of `CCCCCOc1cc(CNc2cnn(CCC(=O)O)c(=O)c2Cl)ccc1OC` [compound 18], 10 µg/mL produced 18% inhibition.

In the case of `COc1cc(CNc2cnn(C)c(=O)c2Cl)cc(OC)c1OC` [compound 19], testing at 10 µg/mL gave an inhibition of 22%.

In the case of `COc1cc(CNc2cnn(CCCO)c(=O)c2Cl)cc(OC)c1OC` [compound 20], testing at 10 µg/mL gave an inhibition of 19%.

The molecule `COc1ccc(CNc2cnn(CCN(C)C)c(=O)c2Cl)cc1O` [compound 21] showed an inhibition at 10 µg/mL of 20%.

Molecule `C=CCn1ncc(NCc2ccc(SC)cc2)c(Cl)c1=O` [compound 22] displayed an inhibition at 10 µg/mL of 72%.

Molecule `CCCCC/C=C\c1ccc(CNc2cnn(CC(=O)O)c(=O)c2Cl)cc1` [compound 23] gave an inhibition at 10 µg/mL of 31%.

As for `CCCCOC(=O)c1ccc(CNc2cnn(C)c(=O)c2Cl)cc1` [compound 24], the inhibition at 10 µg/mL came out at 43%.

Turning to `CN(C)c1ccc(CNc2cn[nH]c(=O)c2Cl)cc1` [compound 25], 10 µg/mL produced 63% inhibition.

As for `CCN(CC)c1ccc(CNc2cnn(C)c(=O)c2Cl)cc1` [compound 26], testing at 10 µg/mL gave an inhibition of 46%.

Take `Cn1ncc(NCc2ccc(C(=O)O)cc2)c(Cl)c1=O` [compound 27]: the inhibition at 10 µg/mL worked out at 20%.

`COc1ccc(CNc2cn[nH]c(=O)c2Cl)cc1` [compound 28] returned an inhibition at 10 µg/mL of 67%.

In turn, `CCCOc1cccc(CNc2cn[nH]c(=O)c2Br)c1` [compound 29] came in with an inhibition at 10 µg/mL of 61%.

`CCCOc1cccc(CNc2cn[nH]c(=O)c2Cl)c1` [compound 31] showed an inhibition at 10 µg/mL of 51%.

The same data set, now with this note: Cavia porcellus, 5 min, 10^-6 g/ml test compound, Test method (i) (asterisk in Table 4), 5 min prior to LTD4.
As to `CCCCCOc1cc(CNc2cn[nH]c(=O)c2Cl)ccc1OC` [Compound No. 37], the inhibition at 1 µg/mL was determined as 87%.

In turn, `CCCCCOc1cc(CNc2cn[nH]c(=O)c2Br)ccc1OC` [Compound No. 39, 4-Bromo-5-(3-n-pentyloxy-4-methoxybenzylamino)-3(2H)-pyridazinone] displayed an inhibition at 1 µg/mL of 87%.

`CCCCOc1cc(CNc2cn[nH]c(=O)c2Cl)ccc1OC` [compound 34] gave an inhibition at 1 µg/mL of 49%.

Regarding `CCOc1cc(CNc2cn[nH]c(=O)c2Cl)ccc1OC` [compound 35], testing at 1 µg/mL gave an inhibition of 42%.
